Assay in all cases: NCI anticancer screen, dose series, 48 h
For assay [1], the system named is CCRF-CEM leukemia.
The subject of assay [2] is OVCAR-8 ovarian.
In assay [3] the test system is LOX IMVI melanoma.
Assay [4] has as its system U251 CNS.
Assay [5] has as its system SNB-19 CNS.
Assay [6] has as its system NCI-H460 lung.
The test system of assay [7] is SK-OV-3 ovarian.
The test system of assay [8] is MCF7 breast.
Assay [9] concerns SF-268 CNS.
Assay [10] deals with A498 renal.
For assay [11], the system named is KM12 colon.
Assay [12] deals with NCI-H23 lung.

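Exposure lasted 48 hours, with cells grown in 96-well plates and compounds tested at five concentrations. TGI is the concentration that stops growth completely.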

Turning to `O=C(NCCCCCCNC(=O)n1cc(F)c(=O)[nH]c1=O)NCCCOCCOCCCNC(=O)C(O)C(O)C(O)C(O)CO` (stereo not given), the TGI in assay [1], in [2], in assay [3], in [4], in assay [5] and in [6] was greater than 2.5 µM each time. Also, the TGI in assay [7], in [8], in assay [9], in assay [10], in assay [11] and in [12] was greater than 2.5 µM in each case.

`CC1(C)[C@@H](Cn2cnc3c(N)ncnc32)CC[C@@]1(C)CO`: the TGI in [1], in [2], in [3], in assay [4], in assay [5] and in [6] was greater than 100 µM throughout. Also, the TGI in [7], in assay [8], in assay [9], in assay [10], in [11] and in assay [12] was greater than 100 µM each time.

On to `ClC(Cl)(Cl)C1=N[C@H]2[C@H](Br)[C@@H]3O[C@@H](c4ccccc4)[C@H](c4ccccc4)O[C@@H]3[C@H]2O1`, for which the TGI came to 47.2 µM in [1]; 33.3 µM in assay [2]; 33.3 µM in [3]; 31.2 µM in assay [4]; 63.9 µM in [5]; 30 µM in assay [6]. For the same compound, the TGI in [7] worked out at 40.5 µM; in [8], 32.6 µM; in assay [9], 37.2 µM; in assay [10], 31.3 µM; in assay [11], 45.6 µM; in assay [12], 42.3 µM.

Regarding `CCN(CC)CCCOC(=O)/C=C/c1c(C)[nH]c(=O)[nH]c1=O`, the TGI in assay [1], in assay [2], in assay [3], in [4], in [5] and in [6] was greater than 625 µM throughout. Moreover, the TGI in assay [7] is greater than 625 µM; in [8] it was greater than 625 µM; in assay [9], greater than 625 µM; in [10] it was greater than 412 µM; in assay [11] it was greater than 625 µM; in [12] it was greater than 625 µM.

Consider `CC(=O)OCC1OC(n2cc(F)c(=O)[nH]c2=O)C(N)C(OC(C)=O)C1OC(C)=O` (stereo not given), for which the TGI in assay [1], in assay [2], in assay [3], in assay [4], in assay [5] and in assay [6] was greater than 100 µM throughout. The TGI in assay [7], in assay [8], in [9], in assay [10], in assay [11] and in assay [12] was greater than 100 µM in each case.

For the origin of these results see PubChem BioAssay (NCI).
